From publication PMC9571063 (Molecules, 2022)
Like-named read-outs stand apart in the source and are kept apart here.

Columns and labels:
ERBB4 = biological target: T1, ERBB4 (Homo sapiens, UniProt Q15303); experiment: KINOMEscan; assay type: binding; conditions: read-out: Percent Control
T1 construct: purchased Eurofins DiscoverX KINOMEscan (scanMAX 468)

KIT(V559D,T670I) = biological target: T2, KIT(V559D,T670I) (Homo sapiens, UniProt P10721, T670I/V559D); experiment: KINOMEscan; assay type: binding; conditions: read-out: Percent Control
T2 construct: purchased Eurofins DiscoverX KINOMEscan (scanMAX 468)

YSK4 = biological target: T3, YSK4 (Homo sapiens, UniProt Q56UN5); experiment: KINOMEscan; assay type: binding; conditions: read-out: Percent Control
T3 construct: purchased Eurofins (KINOMEscan, DiscoverX)

ROCK2 = biological target: T4, ROCK2 (Homo sapiens, UniProt O75116); experiment: KINOMEscan; assay type: binding; conditions: read-out: Percent Control
T4 construct: purchased Eurofins DiscoverX KINOMEscan (scanMAX 468)

[1] = biological target: T5, JAK3(JH1domain-catalytic) (Homo sapiens, UniProt P52333); experiment: KINOMEscan; assay type: binding; conditions: read-out: Percent Control
T5 construct: JAK3(JH1domain-catalytic); purchased Eurofins DiscoverX KINOMEscan (scanMAX 468)

EGFR(T790M) = biological target: T6, EGFR(T790M) (Homo sapiens, UniProt P00533, T790M); experiment: KINOMEscan; assay type: binding; conditions: read-out: Percent Control
T6 construct: purchased Eurofins DiscoverX KINOMEscan (scanMAX 468)

NEK2 = biological target: T7, NEK2 (Homo sapiens, UniProt P51955); experiment: KINOMEscan; assay type: binding; conditions: read-out: Percent Control
T7 construct: purchased Eurofins DiscoverX KINOMEscan (scanMAX 468)

[2] = biological target: T8, JAK2(JH1domain-catalytic) (Homo sapiens, UniProt O60674); experiment: KINOMEscan; assay type: binding; conditions: read-out: Percent Control
T8 construct: JAK2(JH1domain-catalytic); purchased Eurofins DiscoverX KINOMEscan (scanMAX 468)

AMPK-alpha2 = biological target: T9, AMPK-alpha2 (Homo sapiens, UniProt P54646); experiment: KINOMEscan; assay type: binding; conditions: read-out: Percent Control
T9 construct: purchased Eurofins DiscoverX KINOMEscan (scanMAX 468)

CAMK1 = biological target: T10, CAMK1 (Homo sapiens, UniProt Q14012); experiment: KINOMEscan; assay type: binding; conditions: read-out: Percent Control
T10 construct: purchased Eurofins DiscoverX KINOMEscan (scanMAX 468)
T10 sequence (Q14012 whole entry): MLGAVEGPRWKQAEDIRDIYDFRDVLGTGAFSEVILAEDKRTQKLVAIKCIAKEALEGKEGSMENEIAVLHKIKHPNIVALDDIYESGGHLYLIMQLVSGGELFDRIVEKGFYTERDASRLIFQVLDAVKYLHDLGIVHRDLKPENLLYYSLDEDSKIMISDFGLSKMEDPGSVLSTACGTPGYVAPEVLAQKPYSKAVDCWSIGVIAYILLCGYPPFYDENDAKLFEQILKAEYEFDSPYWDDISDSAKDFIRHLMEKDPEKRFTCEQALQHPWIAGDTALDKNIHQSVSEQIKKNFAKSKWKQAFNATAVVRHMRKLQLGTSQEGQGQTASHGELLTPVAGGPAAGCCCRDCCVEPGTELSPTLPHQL

ANKK1 = biological target: T11, ANKK1 (Homo sapiens, UniProt Q8NFD2); experiment: KINOMEscan; assay type: binding; conditions: read-out: Percent Control
T11 construct: purchased Eurofins DiscoverX KINOMEscan (scanMAX 468)

BMPR1A = biological target: T12, BMPR1A (Homo sapiens, UniProt P36894); experiment: KINOMEscan; assay type: binding; conditions: read-out: Percent Control
T12 construct: purchased Eurofins DiscoverX KINOMEscan (scanMAX 468)

ACVR1 = biological target: T13, ACVR1 (Homo sapiens, UniProt Q04771); experiment: KINOMEscan; assay type: binding; conditions: read-out: Percent Control
T13 construct: purchased Eurofins DiscoverX KINOMEscan (scanMAX 468)

panel of 468 kinases = experiment: KINOMEscan, whole panel selectivity score; assay type: binding, human; conditions: 1 µM; non-mutant kinases with %Ctrl < 25 / 403 non-mutant kinases tested
CDK3 = biological target: T14, CDK3 (Homo sapiens, UniProt Q00526); experiment: KINOMEscan; assay type: binding; conditions: read-out: Percent Control
T14 construct: purchased Eurofins DiscoverX KINOMEscan (scanMAX 468)

ACVR1B = biological target: T15, ACVR1B (Homo sapiens, UniProt P36896); experiment: KINOMEscan; assay type: binding; conditions: read-out: Percent Control
T15 construct: purchased Eurofins DiscoverX KINOMEscan (scanMAX 468)

MST1 = biological target: T16, MST1 (Homo sapiens, UniProt Q13043); experiment: KINOMEscan; assay type: binding; conditions: read-out: Percent Control
T16 construct: purchased Eurofins DiscoverX KINOMEscan (scanMAX 468)

MAP4K4 = biological target: T17, MAP4K4 (Homo sapiens, UniProt O95819); experiment: KINOMEscan; assay type: binding; conditions: read-out: Percent Control
T17 construct: purchased Eurofins DiscoverX KINOMEscan (scanMAX 468)

TNNI3K = biological target: T18, TNNI3K (Homo sapiens, UniProt Q59H18); experiment: KINOMEscan; assay type: binding; conditions: read-out: Percent Control
T18 construct: purchased Eurofins DiscoverX KINOMEscan (scanMAX 468)

PIP5K1A = biological target: T19, PIP5K1A (Homo sapiens, UniProt Q99755); experiment: KINOMEscan; assay type: binding; conditions: read-out: Percent Control
T19 construct: purchased Eurofins DiscoverX KINOMEscan (scanMAX 468)

PIK3CA(E545K) = biological target: T20, PIK3CA(E545K) (Homo sapiens, UniProt P42336, E545K); experiment: KINOMEscan; assay type: binding; conditions: read-out: Percent Control
T20 construct: purchased Eurofins DiscoverX KINOMEscan (scanMAX 468)

NDR1 = biological target: T21, NDR1 (Homo sapiens, UniProt Q15208); experiment: KINOMEscan; assay type: binding; conditions: read-out: Percent Control
T21 construct: purchased Eurofins DiscoverX KINOMEscan (scanMAX 468)

RET(M918T) = biological target: T22, RET(M918T) (Homo sapiens, UniProt P07949, M918T); experiment: KINOMEscan; assay type: binding; conditions: read-out: Percent Control
T22 construct: purchased Eurofins DiscoverX KINOMEscan (scanMAX 468)

GCN2(Kin.Dom.2,S808G) = biological target: T23, GCN2(Kin.Dom.2,S808G) (Homo sapiens, UniProt Q9P2K8, S808G); experiment: KINOMEscan; assay type: binding; conditions: read-out: Percent Control
T23 construct: GCN2(Kin.Dom.2,S808G); purchased Eurofins DiscoverX KINOMEscan (scanMAX 468)

CHEK2 = biological target: T24, CHEK2 (Homo sapiens, UniProt O96017); experiment: KINOMEscan; assay type: binding; conditions: read-out: Percent Control
T24 construct: purchased Eurofins DiscoverX KINOMEscan (scanMAX 468)

LOK = biological target: T25, LOK (Homo sapiens, UniProt O94804); experiment: KINOMEscan; assay type: binding; conditions: read-out: Percent Control
T25 construct: purchased Eurofins DiscoverX KINOMEscan (scanMAX 468)
T25 sequence (O94804 whole entry): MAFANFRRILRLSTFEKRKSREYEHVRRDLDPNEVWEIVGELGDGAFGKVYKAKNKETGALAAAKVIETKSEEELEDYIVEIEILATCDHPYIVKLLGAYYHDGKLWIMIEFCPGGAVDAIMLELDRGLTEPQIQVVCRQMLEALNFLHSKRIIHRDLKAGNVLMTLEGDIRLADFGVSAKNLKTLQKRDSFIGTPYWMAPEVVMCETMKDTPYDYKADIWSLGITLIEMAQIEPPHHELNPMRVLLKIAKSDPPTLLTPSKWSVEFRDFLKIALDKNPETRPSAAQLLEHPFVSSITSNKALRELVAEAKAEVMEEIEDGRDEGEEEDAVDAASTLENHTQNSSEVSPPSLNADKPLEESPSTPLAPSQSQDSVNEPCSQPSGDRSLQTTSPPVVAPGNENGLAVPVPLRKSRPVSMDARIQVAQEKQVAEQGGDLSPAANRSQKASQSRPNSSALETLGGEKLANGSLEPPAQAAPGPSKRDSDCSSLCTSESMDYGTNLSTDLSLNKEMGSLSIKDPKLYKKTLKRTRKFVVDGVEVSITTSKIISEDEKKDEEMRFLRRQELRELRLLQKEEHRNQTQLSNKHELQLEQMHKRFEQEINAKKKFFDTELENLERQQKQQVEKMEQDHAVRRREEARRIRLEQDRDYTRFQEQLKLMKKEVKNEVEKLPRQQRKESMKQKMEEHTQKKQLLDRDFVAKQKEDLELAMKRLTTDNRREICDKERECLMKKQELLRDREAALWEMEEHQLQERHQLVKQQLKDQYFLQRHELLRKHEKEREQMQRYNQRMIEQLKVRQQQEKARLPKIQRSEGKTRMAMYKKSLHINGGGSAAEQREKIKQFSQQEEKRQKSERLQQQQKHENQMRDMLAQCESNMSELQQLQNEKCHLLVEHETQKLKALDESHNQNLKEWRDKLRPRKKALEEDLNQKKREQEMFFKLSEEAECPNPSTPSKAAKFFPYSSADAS

AKT1 = biological target: T26, AKT1 (Homo sapiens, UniProt P31749); experiment: KINOMEscan; assay type: binding; conditions: read-out: Percent Control
T26 construct: purchased Eurofins DiscoverX KINOMEscan (scanMAX 468)

MLCK = biological target: T27, MLCK (Homo sapiens, UniProt Q32MK0); experiment: KINOMEscan; assay type: binding; conditions: read-out: Percent Control
T27 construct: purchased Eurofins DiscoverX KINOMEscan (scanMAX 468)

EPHB6 = biological target: T28, EPHB6 (Homo sapiens, UniProt O15197); experiment: KINOMEscan; assay type: binding; conditions: read-out: Percent Control
T28 construct: purchased Eurofins DiscoverX KINOMEscan (scanMAX 468)

CHEK1 = biological target: T29, CHEK1 (Homo sapiens, UniProt O14757); experiment: KINOMEscan; assay type: binding; conditions: read-out: Percent Control
T29 construct: purchased Eurofins DiscoverX KINOMEscan (scanMAX 468)

YANK1 = biological target: T30, YANK1 (Homo sapiens, UniProt Q8WU08); experiment: KINOMEscan; assay type: binding; conditions: read-out: Percent Control
T30 construct: purchased Eurofins (KINOMEscan, DiscoverX)

CSNK2A1 = biological target: T31, CSNK2A1 (Homo sapiens, UniProt P68400); experiment: KINOMEscan; assay type: binding; conditions: read-out: Percent Control
T31 construct: purchased Eurofins DiscoverX KINOMEscan (scanMAX 468)

MEK3 = biological target: T32, MEK3 (Homo sapiens, UniProt P46734); experiment: KINOMEscan; assay type: binding; conditions: read-out: Percent Control
T32 construct: purchased Eurofins DiscoverX KINOMEscan (scanMAX 468)

HUNK = biological target: T33, HUNK (Homo sapiens, UniProt P57058); experiment: KINOMEscan; assay type: binding; conditions: read-out: Percent Control
T33 construct: purchased Eurofins DiscoverX KINOMEscan (scanMAX 468)

AURKB = biological target: T34, AURKB (Homo sapiens, UniProt Q96GD4); experiment: KINOMEscan; assay type: binding; conditions: read-out: Percent Control
T34 construct: purchased Eurofins DiscoverX KINOMEscan (scanMAX 468)
T34 sequence (Q96GD4 whole entry): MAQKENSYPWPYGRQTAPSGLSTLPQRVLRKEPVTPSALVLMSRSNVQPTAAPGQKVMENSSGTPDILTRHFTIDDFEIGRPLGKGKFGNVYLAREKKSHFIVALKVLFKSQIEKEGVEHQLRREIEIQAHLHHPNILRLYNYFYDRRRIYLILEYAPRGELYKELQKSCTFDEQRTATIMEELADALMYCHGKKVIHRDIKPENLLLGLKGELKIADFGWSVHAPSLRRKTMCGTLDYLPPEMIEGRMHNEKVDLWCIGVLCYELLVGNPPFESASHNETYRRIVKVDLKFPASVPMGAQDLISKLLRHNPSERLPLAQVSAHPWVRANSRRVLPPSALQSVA

ABL1-nonphosphorylated = biological target: T35, ABL1-nonphosphorylated (Homo sapiens, UniProt P00519); experiment: KINOMEscan; assay type: binding; conditions: read-out: Percent Control
T35 construct: purchased Eurofins DiscoverX KINOMEscan (scanMAX 468)
T35 sequence (P00519 whole entry): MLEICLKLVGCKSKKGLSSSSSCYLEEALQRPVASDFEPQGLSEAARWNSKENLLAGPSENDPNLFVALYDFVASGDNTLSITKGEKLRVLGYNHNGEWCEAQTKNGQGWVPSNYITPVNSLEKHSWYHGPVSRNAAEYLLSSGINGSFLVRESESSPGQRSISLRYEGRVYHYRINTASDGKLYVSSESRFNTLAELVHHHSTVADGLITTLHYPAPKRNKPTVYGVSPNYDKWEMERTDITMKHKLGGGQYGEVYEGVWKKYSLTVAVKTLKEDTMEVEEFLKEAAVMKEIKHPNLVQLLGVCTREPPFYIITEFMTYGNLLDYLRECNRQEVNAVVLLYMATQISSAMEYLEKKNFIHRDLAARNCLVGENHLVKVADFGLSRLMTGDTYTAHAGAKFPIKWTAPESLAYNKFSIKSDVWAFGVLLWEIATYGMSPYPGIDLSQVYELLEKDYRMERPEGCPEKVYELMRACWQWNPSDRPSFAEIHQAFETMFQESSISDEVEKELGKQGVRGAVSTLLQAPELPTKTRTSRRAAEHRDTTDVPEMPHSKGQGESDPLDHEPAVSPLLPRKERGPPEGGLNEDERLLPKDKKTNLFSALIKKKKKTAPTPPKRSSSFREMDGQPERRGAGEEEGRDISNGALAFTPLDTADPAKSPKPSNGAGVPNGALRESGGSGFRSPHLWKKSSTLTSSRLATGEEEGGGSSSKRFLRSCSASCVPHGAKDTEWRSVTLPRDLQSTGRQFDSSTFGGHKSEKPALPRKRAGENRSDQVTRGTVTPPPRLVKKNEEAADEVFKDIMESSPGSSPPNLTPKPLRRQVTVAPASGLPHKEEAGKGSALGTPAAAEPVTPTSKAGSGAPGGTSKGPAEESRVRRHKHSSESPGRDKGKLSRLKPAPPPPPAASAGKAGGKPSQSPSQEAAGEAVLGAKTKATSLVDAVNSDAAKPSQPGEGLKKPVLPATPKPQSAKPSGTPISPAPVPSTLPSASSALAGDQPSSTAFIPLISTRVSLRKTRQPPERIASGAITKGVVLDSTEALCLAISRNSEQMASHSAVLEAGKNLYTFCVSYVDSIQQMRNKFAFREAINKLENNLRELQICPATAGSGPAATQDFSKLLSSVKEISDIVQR

CASK = biological target: T36, CASK (Homo sapiens, UniProt O14936); experiment: KINOMEscan; assay type: binding; conditions: read-out: Percent Control
T36 construct: purchased Eurofins DiscoverX KINOMEscan (scanMAX 468)

TGFBR1 = biological target: T37, TGFBR1 (Homo sapiens, UniProt P36897); experiment: KINOMEscan; assay type: binding; conditions: read-out: Percent Control
T37 construct: purchased Eurofins DiscoverX KINOMEscan (scanMAX 468)

YSK1 = biological target: T38, YSK1 (Homo sapiens, UniProt O00506); experiment: KINOMEscan; assay type: binding; conditions: read-out: Percent Control
T38 construct: purchased Eurofins (KINOMEscan, DiscoverX)
T38 sequence (O00506 whole entry): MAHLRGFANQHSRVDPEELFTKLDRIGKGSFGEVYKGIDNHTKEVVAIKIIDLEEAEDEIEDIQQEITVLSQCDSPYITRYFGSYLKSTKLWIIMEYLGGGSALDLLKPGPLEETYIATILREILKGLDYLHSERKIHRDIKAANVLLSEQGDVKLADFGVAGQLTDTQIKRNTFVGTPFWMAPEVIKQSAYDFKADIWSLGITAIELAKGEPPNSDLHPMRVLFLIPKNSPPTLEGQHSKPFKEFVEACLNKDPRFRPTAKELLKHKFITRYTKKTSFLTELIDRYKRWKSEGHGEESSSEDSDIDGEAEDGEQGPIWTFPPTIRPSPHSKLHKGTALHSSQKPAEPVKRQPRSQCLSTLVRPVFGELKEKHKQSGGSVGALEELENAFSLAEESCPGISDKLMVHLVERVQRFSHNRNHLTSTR

Hs_PIM1 = biological target: T39, Hs_PIM1 (Homo sapiens, UniProt P11309); parameters: method as in ref 13 (a number printed in a supplementary file, which may have a reference list of its own: not looked up in the article's list); conditions: DB18, cited from earlier work
T39 construct: host or cells: Sf9 insect cells (baculovirus)
T39 sequence (P11309 whole entry): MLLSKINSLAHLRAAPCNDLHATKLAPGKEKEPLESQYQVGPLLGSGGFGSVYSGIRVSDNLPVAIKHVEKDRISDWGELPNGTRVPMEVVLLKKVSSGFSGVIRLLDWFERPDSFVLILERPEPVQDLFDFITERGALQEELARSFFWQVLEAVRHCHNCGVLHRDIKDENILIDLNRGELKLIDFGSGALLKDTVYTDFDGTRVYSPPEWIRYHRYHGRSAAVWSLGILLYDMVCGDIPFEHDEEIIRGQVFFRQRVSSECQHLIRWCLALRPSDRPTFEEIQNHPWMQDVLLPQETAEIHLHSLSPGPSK

T1 sequence (Q15303 26-1308): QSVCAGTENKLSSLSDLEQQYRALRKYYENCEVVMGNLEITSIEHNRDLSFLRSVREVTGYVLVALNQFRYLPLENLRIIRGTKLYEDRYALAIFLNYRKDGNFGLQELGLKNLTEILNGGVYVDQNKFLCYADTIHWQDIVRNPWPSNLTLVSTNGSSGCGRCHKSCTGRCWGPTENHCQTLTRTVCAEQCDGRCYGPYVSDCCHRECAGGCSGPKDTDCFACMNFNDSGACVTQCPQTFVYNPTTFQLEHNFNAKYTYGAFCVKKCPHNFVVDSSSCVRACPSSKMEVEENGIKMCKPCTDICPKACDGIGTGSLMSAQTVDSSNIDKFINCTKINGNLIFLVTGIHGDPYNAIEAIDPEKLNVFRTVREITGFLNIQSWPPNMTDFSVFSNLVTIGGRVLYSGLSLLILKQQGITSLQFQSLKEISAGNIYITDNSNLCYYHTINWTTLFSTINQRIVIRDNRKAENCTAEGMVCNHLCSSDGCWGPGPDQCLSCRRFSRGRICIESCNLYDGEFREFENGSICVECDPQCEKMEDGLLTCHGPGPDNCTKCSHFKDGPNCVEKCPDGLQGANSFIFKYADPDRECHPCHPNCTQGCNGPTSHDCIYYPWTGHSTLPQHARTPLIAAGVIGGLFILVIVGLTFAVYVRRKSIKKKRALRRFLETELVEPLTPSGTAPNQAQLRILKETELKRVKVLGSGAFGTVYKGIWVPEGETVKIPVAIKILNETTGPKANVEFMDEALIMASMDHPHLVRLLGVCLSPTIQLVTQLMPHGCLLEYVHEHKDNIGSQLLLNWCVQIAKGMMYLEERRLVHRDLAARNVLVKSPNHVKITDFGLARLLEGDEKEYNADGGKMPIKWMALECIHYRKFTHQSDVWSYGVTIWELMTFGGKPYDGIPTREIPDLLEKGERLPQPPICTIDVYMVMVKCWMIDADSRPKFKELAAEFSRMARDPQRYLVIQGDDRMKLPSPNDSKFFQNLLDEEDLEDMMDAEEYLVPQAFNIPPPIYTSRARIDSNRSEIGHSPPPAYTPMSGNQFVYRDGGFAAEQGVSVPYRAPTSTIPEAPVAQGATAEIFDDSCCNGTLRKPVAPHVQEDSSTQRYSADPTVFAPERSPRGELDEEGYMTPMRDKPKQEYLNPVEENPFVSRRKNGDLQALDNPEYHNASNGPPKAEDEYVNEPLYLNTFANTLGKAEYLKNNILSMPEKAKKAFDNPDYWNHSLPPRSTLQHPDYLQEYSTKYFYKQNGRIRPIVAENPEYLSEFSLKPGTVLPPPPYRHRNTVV

Cc1ccc(-n2cc(COc3cccc4cnc(Nc5cccc(Cl)c5)nc34)nn2)c([N+](=O)[O-])c1 [DB18]
remaining binding at 1 µM (ERBB4): 100% | remaining binding at 1 µM (KIT(V559D,T670I)): 96% | remaining binding at 1 µM (YSK4): 34% | remaining binding at 1 µM (ROCK2): 100% | remaining binding at 1 µM [1]: 93% | remaining binding at 1 µM (EGFR(T790M)): 100% | remaining binding at 1 µM (NEK2): 100% | remaining binding at 1 µM [2]: 100% | remaining binding at 1 µM (AMPK-alpha2): 91% | remaining binding at 1 µM (CAMK1): 100% | remaining binding at 1 µM (ANKK1): 100% | remaining binding at 1 µM (BMPR1A): 68% | remaining binding at 1 µM (ACVR1): 100% | S-Score(25) (panel of 468 kinases): 0.015 | remaining binding at 1 µM (CDK3): 100% | remaining binding at 1 µM (ACVR1B): 88% | remaining binding at 1 µM (MST1): 100% | remaining binding at 1 µM (MAP4K4): 100% | remaining binding at 1 µM (TNNI3K): 92% | remaining binding at 1 µM (PIP5K1A): 100% | remaining binding at 1 µM (PIK3CA(E545K)): 66% | remaining binding at 1 µM (NDR1): 89% | remaining binding at 1 µM (RET(M918T)): 100% | remaining binding at 1 µM (GCN2(Kin.Dom.2,S808G)): 100% | remaining binding at 1 µM (CHEK2): 100% | remaining binding at 1 µM (LOK): 100% | remaining binding at 1 µM (AKT1): 87% | remaining binding at 1 µM (MLCK): 89% | remaining binding at 1 µM (EPHB6): 95% | remaining binding at 1 µM (CHEK1): 100% | remaining binding at 1 µM (YANK1): 100% | remaining binding at 1 µM (CSNK2A1): 75% | remaining binding at 1 µM (MEK3): 98% | remaining binding at 1 µM (HUNK): 90% | remaining binding at 1 µM (AURKB): 99% | remaining binding at 1 µM (ABL1-nonphosphorylated): 85% | remaining binding at 1 µM (CASK): 99% | remaining binding at 1 µM (TGFBR1): 100% | remaining binding at 1 µM (YSK1): 98% | % of residual activity Hs_PIM1 (Hs_PIM1; 1 µM): 97% | % of residual activity Hs_PIM1 (Hs_PIM1; 10 µM): 81%
